Source: patent US12552790B2, “Positive modulators of the muscarinic acetylcholine receptor M4” (Vanderbilt University, priority 2023, dated 2026)

Molecular target: T1, Human M4 (Homo sapiens, UniProt P08173)
T1 construct: expressed in transfected cells
T1 sequence (P08173 1-479): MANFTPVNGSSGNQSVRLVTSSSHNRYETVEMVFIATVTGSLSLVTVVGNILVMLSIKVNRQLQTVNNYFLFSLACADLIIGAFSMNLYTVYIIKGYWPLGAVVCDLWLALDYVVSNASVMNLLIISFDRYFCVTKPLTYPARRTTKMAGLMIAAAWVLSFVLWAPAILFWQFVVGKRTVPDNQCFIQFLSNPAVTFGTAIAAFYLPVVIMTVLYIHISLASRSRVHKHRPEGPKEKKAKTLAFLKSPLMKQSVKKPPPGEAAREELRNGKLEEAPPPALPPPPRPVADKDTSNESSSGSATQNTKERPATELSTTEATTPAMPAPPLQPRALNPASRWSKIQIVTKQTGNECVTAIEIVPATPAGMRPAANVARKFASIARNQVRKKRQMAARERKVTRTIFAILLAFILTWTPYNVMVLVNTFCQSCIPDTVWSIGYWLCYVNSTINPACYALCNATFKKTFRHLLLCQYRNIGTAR
Test: M4 cell-based functional assay, calcium mobilization, potentiation of ACh EC20
Conditions: for Emax at 30 µM: % ACh maximum at 30 μM; for EC50: CHO-K1 hM4-Gqi5 cells, calcium flux, ACh EC20
In short: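 CHO-K1 cells stably co-expressing human M4 and chimeric Gqi5, loaded with Fluo-4-AM, read by calcium fluorescence (ex 480/em 530 nm). Compound (10-point 1:3 series) added ~140 s before an EC20 ACh challenge, then EC80 ACh. Response expressed as fold over basal, normalized to maximal ACh response.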

| SMILES | Emax at 30 µM | EC50 |
| --- | --- | --- |
| [2H]C1([2H])Oc2ccc(OC3CCN(c4nc5c(cc4C)C(=O)NC5)CC3)cc2OC1([2H])[2H] [Compound 3, 2-(4-((2,3-dihydrobenzo[b][1,4]dioxin-6-yl-2,2,3,3-d4)oxy)piperidin-1-yl)-3-methyl-6,7-dihydro-5H-pyrrolo[3,4-b]pyridin-5-one] | 96% | 2 nM |
| [2H]C1([2H])Oc2ccc(OC3CCN(c4nc5nn(C)c(=O)n5cc4C)CC3)cc2OC1([2H])[2H] [Compound A6, 7-(4-((2,3-dihydrobenzo[b][1,4]dioxin-6-yl-2,2,3,3-d4)oxy)piperidin-1-yl)-2,6-dimethyl-[1,2,4]triazolo[4,3-a]pyrimidin-3(2H)-one] | 90% | 7 nM |
| [2H]C1([2H])Oc2ccc(OC3CCN(c4nc5nn(C)c(=O)n5c(C)c4C)CC3)cc2OC1([2H])[2H] [Compound A10, 7-(4-((2,3-dihydrobenzo[b][1,4]dioxin-6-yl-2,2,3,3-d4)oxy)piperidin-1-yl)-2,5,6-trimethyl-[1,2,4]triazolo[4,3-a]pyrimidin-3(2H)-one] | 96% | 2 nM |
